Results: ChEMBL document CHEMBL5375981, “Enhanced Tumor Targeting and Penetration of Proteolysis-Targeting Chimeras through iRGD Peptide Conjugation: A Strategy for Precise Protein Degradation in Breast Cancer” (J Med Chem, 2023)
Active and inactive are the calls of the source. The calls are words filed in the database; no cut-off is given here.

Experiments:
L02 = assay: Antiproliferative activity against human L02 cells harboring minimal integrin alphaVbeta3 expression assessed as inhibition of cell growth incubated for 72 hrs by CCK-8 assay; format: functional, cell-based; settings: L02, 72 h
[1] = Toxicity in BALB/C mouse xenografted with human MDA-MB-231 cells assessed as adverse reactions at 5 to 8 uM, iv administered for 21 days and measured every 3 days; format: organism-based; settings: in vivo, 504 h, dose 5-8 µM, time 21 day
[2] = Antitumor activity against patient-derived Breast cancer organoid assessed as inhibition of cell growth incubated for approximately 3 to 5 days by CCK-8 assay; format: functional, tissue-based; settings: Homo sapiens
[3] = Stability of compound in PBS containing 5% serum at 50 uM measured after 72 hrs by LC-MS analysis; format: physicochemical, cell-free; settings: read-out: Stability
[4] = molecular target: Bromodomain-containing protein 4 (Homo sapiens) (UniProt O60885); assay: Induction of BRD4 degradation in human MCF7 cells harboring low integrin alphaVbeta3 expression at 300 nM incubated for 12 hrs by immunofluorescence staining based confocal microscopic analysis; format: cell-based
[5] = Toxicity in BALB/C mouse xenografted with human MDA-MB-231 cells assessed as lung damage at 5 to 8 uM, iv administered every other day for 21 days and measured 37 days post treatment by H and E staining based assay; format: organism-based; settings: in vivo, 1392 h, dose 5-8 µM, time 58 day
Homo sapiens [6] = species on record: Homo sapiens; assay: Antitumor activity against patient-derived Breast cancer organoid assessed as increase in number of apoptotic cells by measuring increase in red fluorescence at 0.5 to 1 uM incubated for approximately 3 to 5 days by acridine orange/ethidium bromide double staining ssay; format: functional, cell-based; settings: dose 0.5-1 µM, time 3-5 day
[7] = Toxicity in BALB/C mouse xenografted with human MDA-MB-231 cells assessed as spleen damage at 5 to 8 uM, iv administered every other day for 21 days and measured 37 days post treatment by H and E staining based assay; format: organism-based; settings: in vivo, 1392 h, dose 5-8 µM, time 58 day
MCF7 = assay: Antiproliferative activity against human MCF7 cells harboring low integrin alphaVbeta3 expression assessed as inhibition of cell growth incubated for 72 hrs by CCK-8 assay; format: functional, cell-based; settings: MCF7, 72 h
Homo sapiens [8] = species on record: Homo sapiens; assay: Antitumor activity against patient-derived Breast cancer organoid assessed as increase in number of apoptotic cells by measuring reduction in green fluorescence at 0.5 to 1 uM incubated for approximately 3 to 5 days by acridine orange/ethidium bromide double staining ssay; format: functional, cell-based; settings: dose 0.5-1 µM, time 3-5 day

## Cc1ncsc1-c1ccc([C@H](C)NC(=O)[C@@H]2C[C@@H](OC(=O)OCCSSCCOC(=O)CCC(=O)NCCCC[C@@H]3NC(=O)[C@H](CC(=O)O)NC(=O)CNC(=O)[C@H](CCCNC(=N)N)NC(=O)[C@@H](N)CSSC[C@@H](C(=O)O)NC(=O)[C@H](CC(=O)O)NC(=O)[C@@H]4CCCN4C(=O)CNC3=O)CN2C(=O)[C@@H](NC(=O)COCCOCCOCCNC(=O)C[C@@H]2N=C(c3ccc(Cl)cc3)c3c(sc(C)c3C)-n3c(C)nnc32)C(C)(C)C)cc1
L02
  IC50: 1500 nM
[1]
  Activity: Non-Toxic
[2]
  IC50: 950 nM
[3]
  remaining at 72 h, 50 µM: 89.9%
[4]
  Activity: inactive
[5]
  Activity: Non-Toxic
Homo sapiens [6]
  Activity: Active
[7]
  Activity: Non-Toxic
MCF7
  IC50: 260 nM
Homo sapiens [8]
  Activity: Active
